According to ChEMBL document CHEMBL5029145, “Discovery of AZD8154, a Dual PI3Kγδ Inhibitor for the Treatment of Asthma” (J Med Chem, 2021):
In brackets after ≈: the same amount, converted by molar mass.

How the values were obtained:
[1] = Half life in rat plasma at 0.5 mg/kg, iv; assay type: ADME, organism-based
[2] = target: T1, Phosphatidylinositol 4,5-bisphosphate 3-kinase catalytic subunit delta isoform (Homo sapiens, UniProt O00329); test: Inhibition of recombinant human PI3Kdelta assessed as reduction in ADP production using Dic8-PIP2 as substrate pre-treated for 15 mins followed by substrate addition measured after 60 mins by ADP-glo assay
T1 sequence (O00329 whole entry): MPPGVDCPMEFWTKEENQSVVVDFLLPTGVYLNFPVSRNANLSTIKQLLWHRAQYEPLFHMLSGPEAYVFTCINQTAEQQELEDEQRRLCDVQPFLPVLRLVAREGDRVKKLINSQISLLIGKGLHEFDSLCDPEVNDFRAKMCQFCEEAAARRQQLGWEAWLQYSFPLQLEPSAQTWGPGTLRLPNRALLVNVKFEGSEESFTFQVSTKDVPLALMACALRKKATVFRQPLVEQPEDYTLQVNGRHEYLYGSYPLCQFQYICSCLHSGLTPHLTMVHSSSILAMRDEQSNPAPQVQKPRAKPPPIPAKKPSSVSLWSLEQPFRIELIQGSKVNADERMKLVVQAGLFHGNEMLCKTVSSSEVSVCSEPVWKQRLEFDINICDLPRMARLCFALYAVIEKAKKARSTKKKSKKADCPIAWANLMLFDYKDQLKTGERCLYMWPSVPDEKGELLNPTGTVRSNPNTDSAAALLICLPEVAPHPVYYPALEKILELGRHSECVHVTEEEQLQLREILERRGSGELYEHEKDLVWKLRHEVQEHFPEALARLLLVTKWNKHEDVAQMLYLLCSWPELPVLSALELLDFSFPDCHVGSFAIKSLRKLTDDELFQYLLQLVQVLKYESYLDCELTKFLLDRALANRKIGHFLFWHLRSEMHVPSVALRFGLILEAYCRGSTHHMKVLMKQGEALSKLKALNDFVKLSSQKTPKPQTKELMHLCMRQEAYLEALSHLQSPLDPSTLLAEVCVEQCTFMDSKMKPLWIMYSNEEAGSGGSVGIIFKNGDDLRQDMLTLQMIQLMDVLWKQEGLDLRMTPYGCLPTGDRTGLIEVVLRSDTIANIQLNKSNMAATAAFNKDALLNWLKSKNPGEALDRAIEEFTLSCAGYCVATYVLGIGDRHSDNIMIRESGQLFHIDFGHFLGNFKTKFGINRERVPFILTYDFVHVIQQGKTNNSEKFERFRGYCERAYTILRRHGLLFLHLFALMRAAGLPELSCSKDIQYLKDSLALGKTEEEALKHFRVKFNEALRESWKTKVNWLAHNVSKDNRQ

[3] = target: Phosphatidylinositol 4,5-bisphosphate 3-kinase catalytic subunit gamma isoform (Mus musculus, UniProt Q9JHG7); test: Inhibition of PI3Kgamma in C5a-stimulated mouse RAW 264 cells assessed as inhibition of AKT phosphorylation at Ser473 residue Pretreated for 15 mins followed by C5a stimulation measured after 3 mins by HTRF assay; assay type: cell-based
Phosphatidylinositol 4,5-bisphosphate 3-kinase catalytic subunit gamma isoform, sequence (Q9JHG7 whole entry, canonical isoform): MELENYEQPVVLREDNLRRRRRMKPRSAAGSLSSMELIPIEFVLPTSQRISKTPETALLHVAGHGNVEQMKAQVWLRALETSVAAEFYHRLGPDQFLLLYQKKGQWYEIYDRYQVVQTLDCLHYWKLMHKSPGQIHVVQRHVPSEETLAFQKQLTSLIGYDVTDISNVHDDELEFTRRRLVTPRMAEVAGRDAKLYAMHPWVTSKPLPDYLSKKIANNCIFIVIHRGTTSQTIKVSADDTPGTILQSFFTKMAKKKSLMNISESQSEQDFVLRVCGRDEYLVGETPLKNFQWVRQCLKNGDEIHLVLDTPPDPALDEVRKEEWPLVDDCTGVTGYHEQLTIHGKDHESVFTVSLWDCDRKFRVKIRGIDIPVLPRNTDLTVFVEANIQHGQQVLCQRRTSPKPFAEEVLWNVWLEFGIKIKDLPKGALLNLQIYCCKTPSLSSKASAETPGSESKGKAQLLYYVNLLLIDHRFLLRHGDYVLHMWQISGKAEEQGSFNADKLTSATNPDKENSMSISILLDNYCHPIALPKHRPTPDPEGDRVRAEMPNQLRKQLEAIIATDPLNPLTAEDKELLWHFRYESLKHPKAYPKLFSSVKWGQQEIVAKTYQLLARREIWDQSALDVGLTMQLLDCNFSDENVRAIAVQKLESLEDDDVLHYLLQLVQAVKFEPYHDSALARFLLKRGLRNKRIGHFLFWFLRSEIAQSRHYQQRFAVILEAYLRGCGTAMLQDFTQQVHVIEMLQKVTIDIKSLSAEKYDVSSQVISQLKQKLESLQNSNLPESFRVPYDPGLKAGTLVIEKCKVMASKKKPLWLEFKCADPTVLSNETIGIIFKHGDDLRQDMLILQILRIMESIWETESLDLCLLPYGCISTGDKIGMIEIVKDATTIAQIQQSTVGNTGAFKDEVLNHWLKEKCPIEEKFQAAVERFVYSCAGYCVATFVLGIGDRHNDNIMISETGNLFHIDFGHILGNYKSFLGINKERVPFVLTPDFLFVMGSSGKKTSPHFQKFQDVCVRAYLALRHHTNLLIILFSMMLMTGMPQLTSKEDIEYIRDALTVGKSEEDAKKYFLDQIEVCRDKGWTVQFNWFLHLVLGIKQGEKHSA

[4] = Solubility of compound in at pH 7.4 at 1 mg/ml using crystalline form of sample incubated for 24 hrs by HPLC MS analysis; assay type: physicochemical
[5] = Distribution coefficient, logD of compound at pH 7.4; assay type: physicochemical; conditions: octanol/water
[6] = target: T2, Phosphatidylinositol 3-kinase C2 domain-containing subunit gamma (Homo sapiens, UniProt O75747); test: Inhibition of PIK3C2G (unknown origin) assessed as reduction in substrate phosphorylation by FRET Adapta assay
T2 sequence (O75747 whole entry): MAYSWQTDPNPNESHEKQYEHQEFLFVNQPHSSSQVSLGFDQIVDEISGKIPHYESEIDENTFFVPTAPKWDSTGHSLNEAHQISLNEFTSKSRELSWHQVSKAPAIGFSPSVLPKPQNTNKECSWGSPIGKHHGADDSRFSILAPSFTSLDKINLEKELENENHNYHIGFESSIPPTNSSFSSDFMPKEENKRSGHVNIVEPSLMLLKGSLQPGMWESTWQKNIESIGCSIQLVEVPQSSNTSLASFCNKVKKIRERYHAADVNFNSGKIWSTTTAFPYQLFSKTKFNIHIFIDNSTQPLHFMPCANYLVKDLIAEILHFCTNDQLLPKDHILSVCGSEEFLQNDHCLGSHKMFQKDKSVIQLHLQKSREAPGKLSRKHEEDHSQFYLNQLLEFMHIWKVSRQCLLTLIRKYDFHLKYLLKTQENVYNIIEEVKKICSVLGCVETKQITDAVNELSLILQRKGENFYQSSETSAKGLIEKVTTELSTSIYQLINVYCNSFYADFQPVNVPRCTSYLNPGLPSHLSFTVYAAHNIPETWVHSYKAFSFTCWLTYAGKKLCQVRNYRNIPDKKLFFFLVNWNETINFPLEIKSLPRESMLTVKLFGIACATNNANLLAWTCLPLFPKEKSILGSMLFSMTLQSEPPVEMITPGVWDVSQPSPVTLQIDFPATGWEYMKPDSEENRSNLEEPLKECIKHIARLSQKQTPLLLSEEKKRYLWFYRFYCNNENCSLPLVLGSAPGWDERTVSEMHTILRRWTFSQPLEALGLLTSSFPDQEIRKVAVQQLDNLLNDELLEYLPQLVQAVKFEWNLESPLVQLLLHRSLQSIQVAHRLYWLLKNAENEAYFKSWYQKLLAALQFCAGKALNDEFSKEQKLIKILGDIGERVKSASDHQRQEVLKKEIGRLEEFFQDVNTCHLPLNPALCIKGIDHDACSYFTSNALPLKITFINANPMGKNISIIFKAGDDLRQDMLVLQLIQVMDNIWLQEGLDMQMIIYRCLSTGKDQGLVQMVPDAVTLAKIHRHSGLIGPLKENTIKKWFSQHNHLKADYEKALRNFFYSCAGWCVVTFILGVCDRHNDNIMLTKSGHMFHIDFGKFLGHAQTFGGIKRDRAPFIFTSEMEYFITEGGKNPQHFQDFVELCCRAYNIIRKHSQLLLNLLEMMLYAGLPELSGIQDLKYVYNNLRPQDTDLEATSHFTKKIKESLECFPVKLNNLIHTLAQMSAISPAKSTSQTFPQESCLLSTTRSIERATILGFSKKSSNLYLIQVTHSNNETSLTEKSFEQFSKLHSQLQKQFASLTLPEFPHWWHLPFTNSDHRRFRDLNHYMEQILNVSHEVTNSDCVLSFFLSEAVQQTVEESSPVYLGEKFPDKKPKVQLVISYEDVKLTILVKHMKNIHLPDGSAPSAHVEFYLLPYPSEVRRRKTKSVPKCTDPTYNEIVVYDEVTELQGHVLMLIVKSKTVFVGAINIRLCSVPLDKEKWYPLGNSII

[7] = target: Phosphatidylinositol 4-kinase alpha (Homo sapiens, UniProt P42356); test: Inhibition of PI4KA (unknown origin) assessed as reduction in substrate phosphorylation by FRET Adapta assay
Phosphatidylinositol 4-kinase alpha, sequence (P42356 whole entry): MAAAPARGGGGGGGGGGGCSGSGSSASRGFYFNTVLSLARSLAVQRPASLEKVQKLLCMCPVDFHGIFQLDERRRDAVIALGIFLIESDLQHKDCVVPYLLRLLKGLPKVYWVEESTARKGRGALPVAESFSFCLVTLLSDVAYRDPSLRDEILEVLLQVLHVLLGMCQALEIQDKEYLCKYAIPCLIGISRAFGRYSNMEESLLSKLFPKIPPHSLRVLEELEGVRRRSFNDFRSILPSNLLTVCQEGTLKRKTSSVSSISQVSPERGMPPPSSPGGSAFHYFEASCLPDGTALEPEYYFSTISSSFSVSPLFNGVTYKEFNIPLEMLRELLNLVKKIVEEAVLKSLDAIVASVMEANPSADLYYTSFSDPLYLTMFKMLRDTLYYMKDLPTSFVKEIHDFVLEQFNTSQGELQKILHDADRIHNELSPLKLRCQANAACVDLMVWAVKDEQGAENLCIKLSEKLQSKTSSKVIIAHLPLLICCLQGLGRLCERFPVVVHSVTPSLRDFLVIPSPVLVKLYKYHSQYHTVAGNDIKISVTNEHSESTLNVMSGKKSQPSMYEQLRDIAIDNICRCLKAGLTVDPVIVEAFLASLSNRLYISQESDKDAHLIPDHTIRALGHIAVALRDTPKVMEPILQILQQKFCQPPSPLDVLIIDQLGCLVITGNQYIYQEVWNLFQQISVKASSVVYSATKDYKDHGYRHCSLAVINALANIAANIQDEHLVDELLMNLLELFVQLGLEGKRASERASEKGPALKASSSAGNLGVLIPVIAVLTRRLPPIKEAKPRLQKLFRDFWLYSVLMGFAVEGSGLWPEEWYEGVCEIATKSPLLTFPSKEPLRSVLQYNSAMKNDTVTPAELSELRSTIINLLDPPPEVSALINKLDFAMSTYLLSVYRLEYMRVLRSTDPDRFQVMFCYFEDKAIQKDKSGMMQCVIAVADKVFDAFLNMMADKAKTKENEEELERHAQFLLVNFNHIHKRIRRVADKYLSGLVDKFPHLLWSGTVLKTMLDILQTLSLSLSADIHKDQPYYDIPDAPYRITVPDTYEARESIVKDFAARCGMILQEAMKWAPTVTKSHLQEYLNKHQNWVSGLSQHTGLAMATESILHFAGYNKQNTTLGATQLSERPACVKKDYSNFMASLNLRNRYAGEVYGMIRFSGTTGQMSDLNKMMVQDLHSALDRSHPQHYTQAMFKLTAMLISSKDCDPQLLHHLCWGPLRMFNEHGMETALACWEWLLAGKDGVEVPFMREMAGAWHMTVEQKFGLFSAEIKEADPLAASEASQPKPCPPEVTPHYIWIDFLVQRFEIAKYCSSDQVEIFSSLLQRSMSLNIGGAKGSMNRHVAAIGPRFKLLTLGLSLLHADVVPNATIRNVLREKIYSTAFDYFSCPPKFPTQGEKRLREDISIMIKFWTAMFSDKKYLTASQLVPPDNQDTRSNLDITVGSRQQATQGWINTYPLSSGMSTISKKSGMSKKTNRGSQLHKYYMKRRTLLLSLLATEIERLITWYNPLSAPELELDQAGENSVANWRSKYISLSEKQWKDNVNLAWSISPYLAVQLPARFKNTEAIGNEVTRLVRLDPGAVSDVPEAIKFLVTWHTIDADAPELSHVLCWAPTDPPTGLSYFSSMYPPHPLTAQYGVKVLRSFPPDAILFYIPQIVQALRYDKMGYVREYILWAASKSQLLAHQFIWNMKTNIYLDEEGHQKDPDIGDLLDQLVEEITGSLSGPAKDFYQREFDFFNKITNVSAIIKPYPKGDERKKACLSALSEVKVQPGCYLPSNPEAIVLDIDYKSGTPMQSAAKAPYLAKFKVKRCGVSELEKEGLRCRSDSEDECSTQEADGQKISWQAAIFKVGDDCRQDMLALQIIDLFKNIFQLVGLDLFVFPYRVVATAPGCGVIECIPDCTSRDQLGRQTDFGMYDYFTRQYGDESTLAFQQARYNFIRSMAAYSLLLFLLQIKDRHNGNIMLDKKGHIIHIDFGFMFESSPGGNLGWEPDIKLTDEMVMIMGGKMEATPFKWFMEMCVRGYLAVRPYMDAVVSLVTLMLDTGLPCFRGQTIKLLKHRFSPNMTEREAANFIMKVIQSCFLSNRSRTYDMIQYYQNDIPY

[8] = target: Phosphatidylinositol 4-kinase beta (Homo sapiens, UniProt Q9UBF8); test: Inhibition of PI4KB (unknown origin) assessed as reduction in substrate phosphorylation by FRET Adapta assay
Phosphatidylinositol 4-kinase beta, sequence (Q9UBF8 whole entry): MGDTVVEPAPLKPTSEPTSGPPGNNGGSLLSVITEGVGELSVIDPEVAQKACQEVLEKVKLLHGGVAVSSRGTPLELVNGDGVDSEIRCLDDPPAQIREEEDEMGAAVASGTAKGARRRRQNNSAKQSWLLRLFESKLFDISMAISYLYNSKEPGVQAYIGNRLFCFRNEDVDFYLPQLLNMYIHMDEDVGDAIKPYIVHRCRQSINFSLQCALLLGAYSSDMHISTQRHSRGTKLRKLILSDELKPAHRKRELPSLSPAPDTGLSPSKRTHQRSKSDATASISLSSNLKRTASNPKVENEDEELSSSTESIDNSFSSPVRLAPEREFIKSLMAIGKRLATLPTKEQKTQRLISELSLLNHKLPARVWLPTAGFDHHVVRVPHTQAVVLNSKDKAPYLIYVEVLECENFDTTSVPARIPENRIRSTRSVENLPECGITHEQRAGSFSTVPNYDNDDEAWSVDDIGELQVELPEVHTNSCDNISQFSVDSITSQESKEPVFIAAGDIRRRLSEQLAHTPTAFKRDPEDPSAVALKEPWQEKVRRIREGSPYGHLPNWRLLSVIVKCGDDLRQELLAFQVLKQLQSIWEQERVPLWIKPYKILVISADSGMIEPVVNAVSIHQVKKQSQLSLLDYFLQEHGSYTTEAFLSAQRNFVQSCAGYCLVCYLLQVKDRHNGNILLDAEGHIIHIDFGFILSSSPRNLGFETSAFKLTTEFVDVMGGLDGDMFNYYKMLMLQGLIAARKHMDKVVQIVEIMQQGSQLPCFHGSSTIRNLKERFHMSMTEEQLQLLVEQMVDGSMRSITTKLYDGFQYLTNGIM

[9] = Apparent permeability in human Caco2 cells; assay type: ADME, cell-based; conditions: caco-2
[10] = Thermodynamic stability assessed as onset melting temperature; assay type: physicochemical

Work on `Cc1nc(Nc2cccc(N3CCCC3=O)n2)sc1-c1cc2c(c(S(C)(=O)=O)c1)C(=O)N([C@@H](C)C1CC1)C2` [AZD-8154] yielded a half-life [1] of 2.9 h, an IC50 [2] of 0.631 nM and an IC50 [3] of 0.794 nM. It also gave a solubility thermodynamic at 24 h [4] of 0.054 µM (≈ 0.0298 µg/mL), a logD [5] of 4.4 and an IC50 [6] of 63.1 nM. The IC50 [7] was greater than 10000 nM, the IC50 [8] was 3160 nM and the Papp [9] was “Impermeable”. The Tm [10] was 285 °C.
